The values below are quoted from earlier work in patent US20230330076A1, “CONTROLLED RELEASE FORMULATIONS OF FLAVOXATE AND PROCESS FOR PREPARATION THEREOF” (priority 2021, published 2023).

Read-outs that look alike come from different tables or passages of the source.

Data set [1] concerns α- and β-noradrenergic, muscarinic, serotoninergic and opiate receptors, and calcium binding sites. As to conditions: rat brain tissue.
Test in data set [2]: not given
This is another data set of the same source.

For 3-methylflavone carboxylic acid [MFCA], where the note is “in vivo, iv, 100 mg”, the “apparent volume of distribution” value is 0.20 L/kg.

On to `Cc1c(-c2ccccc2)oc2c(C(=O)OCCN3CCCCC3)cccc2c1=O.Cl` [Flavoxate hydrochloride, 2-piperidinoethyl 3-methylflavone-8-carboxylate hydrochloride], for which, in data set [1], the “binding activity on receptors” value is “only weak binding activity”. In addition, the “time of peak level of MFCA” value in data set [2] (single oral 200 mg dose) is 30 to 60 min; in data set [2] (single oral 400 mg dose), “around two hours”. The “AUC for the 400 mg dose relative to the 200 mg dose” value in data set [2] (single oral dosing) was “approximately twice as large”. Besides, the “dose excreted as MFCA” value in data set [2] (single oral dosing, within 12 hours) is given as “About 50%” and the “dose excreted as MFCA” value (IV dose equimolar to 100 mg, urine) is on record as 47%. Also, the T½ (IV dose equimolar to 100 mg) was 1.39 h. Besides, the “apparent volume of distribution” value (IV dose equimolar to 100 mg) was 2.89 L/kg.
